Experimental data as given in patent publication US12590961B2, “Quantum dot conjugated virus spike protein for cell-based bio-sensing systems and drug screening” (priority 2020, dated 2026).

Tested on: ACE2-GFP HEK293T cells
Format: cell-based, human

O=C(N/N=C/c1cc(O)c(O)cc1O)c1cc2ccccc2cc1O [Dyngo-4a]
blocking of endo(RBD-ACE2), QD608-RBD induced translocation of ACE2-GFP: robustly blocked | effect on ACE2-GFP localization, compound alone: did not affect the ACE2-GFP localization
